According to US8962842B2, “2-pyridone antimicrobial compositions” (priority 2010, dated 2015):
Like-named read-outs stand apart in the source and are kept apart here.

What was measured:
[1] = test system: Escherichia coli (6 strains); assay: MIC range, broader panel of Quotient Bioresearch strains (Table 4); type: cell-based
[2] = test system: Klebsiella pneumonia (4 strains); assay: as above; type: cell-based; conditions: Klebsiella pneumoniae
[3] = test system: Pseudomonas aeruginosa (12 strains); assay: as above; type: cell-based
[4] = test system: Burkholderia cepacia (5 strains); assay: as above; type: cell-based
[5] = test system: Haemophilus influenza (5 strains); assay: as above; type: cell-based, Haemophilus influenzae
[6] = test system: Acinetobacter baumannii (12 strains); assay: as above; type: cell-based
[7] = test system: Acinetobacter baumannii, quinolone-resistant strains (Quotient Bioresearch catalogue); assay: MIC against pathogens resistant against quinolones (Table 5); type: cell-based; conditions: Acinetobacter baumannii, GN54
bacterial gyrase = bacterial gyrase (Escherichia coli, UniProt P0AES4+P0AES6); assay: Inhibition of topoisomerases activity in vitro, Topogen protocol TG1003 (Table 7); type: biochemical
Chain of bacterial gyrase (P0AES4 whole entry, one chain of several): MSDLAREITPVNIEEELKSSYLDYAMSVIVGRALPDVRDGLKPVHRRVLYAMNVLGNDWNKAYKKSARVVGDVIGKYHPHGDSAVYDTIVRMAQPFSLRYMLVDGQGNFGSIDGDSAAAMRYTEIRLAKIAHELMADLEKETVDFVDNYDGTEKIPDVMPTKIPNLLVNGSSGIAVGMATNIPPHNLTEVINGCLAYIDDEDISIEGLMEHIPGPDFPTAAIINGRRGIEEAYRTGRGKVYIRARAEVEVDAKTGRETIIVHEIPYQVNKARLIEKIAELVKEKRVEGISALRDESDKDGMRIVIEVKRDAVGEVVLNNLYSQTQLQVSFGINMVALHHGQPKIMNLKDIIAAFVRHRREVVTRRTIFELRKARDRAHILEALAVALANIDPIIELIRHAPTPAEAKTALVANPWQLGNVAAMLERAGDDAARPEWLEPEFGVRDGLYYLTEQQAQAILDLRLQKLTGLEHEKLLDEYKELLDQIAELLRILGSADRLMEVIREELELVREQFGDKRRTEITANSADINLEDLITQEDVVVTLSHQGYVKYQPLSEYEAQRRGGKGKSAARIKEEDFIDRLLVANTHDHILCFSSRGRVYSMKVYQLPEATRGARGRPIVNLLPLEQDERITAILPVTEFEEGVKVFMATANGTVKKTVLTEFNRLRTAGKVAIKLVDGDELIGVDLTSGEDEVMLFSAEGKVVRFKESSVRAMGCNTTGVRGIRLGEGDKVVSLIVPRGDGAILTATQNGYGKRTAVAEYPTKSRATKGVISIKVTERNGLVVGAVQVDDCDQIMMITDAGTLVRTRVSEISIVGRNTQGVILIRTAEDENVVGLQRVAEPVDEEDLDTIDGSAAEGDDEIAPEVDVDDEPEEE

[8] = biological target: bacterial topoisomerase IV (Escherichia coli, UniProt P0AFI2+P20083); assay: Inhibition of topoisomerases activity in vitro, Topogen protocol TG1007 (Table 7); type: biochemical
Chain of bacterial topoisomerase IV (P20083 whole entry): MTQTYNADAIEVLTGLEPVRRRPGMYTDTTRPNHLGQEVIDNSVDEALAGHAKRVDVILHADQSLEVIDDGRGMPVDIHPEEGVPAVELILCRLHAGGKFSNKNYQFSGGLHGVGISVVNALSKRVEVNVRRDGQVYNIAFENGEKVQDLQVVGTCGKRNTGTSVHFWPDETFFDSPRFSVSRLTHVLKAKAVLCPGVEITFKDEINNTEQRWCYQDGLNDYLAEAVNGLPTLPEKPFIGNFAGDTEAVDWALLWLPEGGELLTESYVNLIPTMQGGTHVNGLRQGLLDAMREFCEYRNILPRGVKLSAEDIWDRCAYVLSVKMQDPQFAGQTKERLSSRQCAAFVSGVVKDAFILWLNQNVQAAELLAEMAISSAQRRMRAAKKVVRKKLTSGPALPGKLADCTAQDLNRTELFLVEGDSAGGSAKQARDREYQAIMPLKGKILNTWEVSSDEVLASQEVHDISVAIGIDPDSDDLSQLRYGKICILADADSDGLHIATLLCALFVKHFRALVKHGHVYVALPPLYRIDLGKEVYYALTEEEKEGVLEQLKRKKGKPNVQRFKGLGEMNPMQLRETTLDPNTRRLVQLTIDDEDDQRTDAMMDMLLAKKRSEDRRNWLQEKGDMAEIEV
Chain of bacterial topoisomerase IV (P0AFI2 whole entry): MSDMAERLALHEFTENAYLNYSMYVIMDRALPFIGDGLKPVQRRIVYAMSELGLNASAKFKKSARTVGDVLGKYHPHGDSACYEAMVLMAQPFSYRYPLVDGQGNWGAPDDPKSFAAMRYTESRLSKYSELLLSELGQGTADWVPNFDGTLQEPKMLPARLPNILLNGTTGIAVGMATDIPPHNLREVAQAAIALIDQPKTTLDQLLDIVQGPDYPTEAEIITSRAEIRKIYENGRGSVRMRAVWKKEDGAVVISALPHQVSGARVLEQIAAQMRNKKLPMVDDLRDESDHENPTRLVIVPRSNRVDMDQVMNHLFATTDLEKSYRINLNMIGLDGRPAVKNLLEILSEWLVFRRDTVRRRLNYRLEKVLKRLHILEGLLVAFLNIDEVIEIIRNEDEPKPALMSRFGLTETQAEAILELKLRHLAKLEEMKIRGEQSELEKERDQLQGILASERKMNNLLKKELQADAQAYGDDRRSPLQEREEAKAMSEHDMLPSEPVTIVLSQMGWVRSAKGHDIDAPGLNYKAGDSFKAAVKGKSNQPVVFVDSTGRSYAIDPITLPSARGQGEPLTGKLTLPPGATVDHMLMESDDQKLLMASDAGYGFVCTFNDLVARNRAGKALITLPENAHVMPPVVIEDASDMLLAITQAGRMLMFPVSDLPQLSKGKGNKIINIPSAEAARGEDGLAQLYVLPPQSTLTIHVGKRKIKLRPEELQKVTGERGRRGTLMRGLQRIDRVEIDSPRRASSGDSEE

human topoisomerase I = biological target: T1, human topoisomerase I (Homo sapiens, UniProt P11387); assay: Inhibition of topoisomerases activity in vitro, Topogen protocol TG1015 (Table 7); type: biochemical; conditions: read-out: IC50 hTopo I Assay
T1 construct: purchased Topogen Inc., Port Orange, USA TG1015
T1 sequence (P11387 1-765): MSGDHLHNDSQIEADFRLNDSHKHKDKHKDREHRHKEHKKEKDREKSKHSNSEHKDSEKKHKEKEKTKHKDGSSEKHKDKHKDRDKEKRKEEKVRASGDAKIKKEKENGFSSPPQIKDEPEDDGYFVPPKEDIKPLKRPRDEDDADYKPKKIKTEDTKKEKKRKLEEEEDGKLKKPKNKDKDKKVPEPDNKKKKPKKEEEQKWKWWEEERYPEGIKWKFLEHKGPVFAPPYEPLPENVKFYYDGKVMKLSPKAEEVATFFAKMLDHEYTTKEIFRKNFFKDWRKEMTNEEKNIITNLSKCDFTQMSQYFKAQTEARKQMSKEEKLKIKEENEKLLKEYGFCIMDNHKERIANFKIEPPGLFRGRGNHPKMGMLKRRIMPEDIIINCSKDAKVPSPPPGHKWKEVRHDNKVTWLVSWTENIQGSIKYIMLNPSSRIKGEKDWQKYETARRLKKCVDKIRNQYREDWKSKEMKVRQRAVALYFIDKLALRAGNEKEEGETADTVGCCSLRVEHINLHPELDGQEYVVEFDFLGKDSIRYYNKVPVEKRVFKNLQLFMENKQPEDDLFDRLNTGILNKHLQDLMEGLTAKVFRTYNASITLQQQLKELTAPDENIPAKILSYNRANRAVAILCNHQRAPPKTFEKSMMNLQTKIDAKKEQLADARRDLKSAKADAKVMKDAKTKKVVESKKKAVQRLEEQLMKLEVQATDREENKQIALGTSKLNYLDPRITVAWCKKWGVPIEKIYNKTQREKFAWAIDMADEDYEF

[9] = Metabolic stability in liver microsomes +/- S9 fraction (Table 8); type: in vitro ADME; conditions: 1 μM
Protocol: Metabolic stability of a select number of examples was tested in liver microsomes+/−addition of S9 fraction as described by Kuhnz, W. and Gieschen, H. (1998), Drug Metab. Dispos., 1120-1127. Test concentration was 1 μM and HPLC/MS-MS was used for detection.

[10] = test system: Bacterial strains injected into thigh muscles; type: in vivo, mice; conditions: 30 mg/kg TDS p.o.
physchem = type: physicochemical; conditions: thermodynamic from solid
Protocol: The solutions were incubated at room temperature for 24 hours before quantification by HPLC detection. Aqueous solubility was evaluated in simulated gastric fluid (SGF), simulated intestinal fluid (SIF) and phosphate buffer saline (PBS) pH 7.4. Aqueous solubility is expressed in Table 11 as mean solubility in μM.

[11] = test system: Staphylococcus aureus (16 strains); assay: MIC range, broader panel of Quotient Bioresearch strains (Table 3)
[12] = test system: Enterococcus faecalis (5 strains); assay: as above
[13] = test system: Enterococcus faecium (3 strains); assay: as above
[14] = test system: Streptococcus pneumonia (5 strains); assay: as above; conditions: Streptococcus pneumoniae
[15] = test system: Streptococcus pyogenes (4 strains); assay: as above
[16] = test system: Group C Streptococcus (4 strains); assay: as above

For `Cc1c(-c2ccc3[nH]ncc3c2)ccn2c(=O)c(C(=O)[O-])cc(C3CC3)c12.[K+]` [Example 23 K salt, potassium 1-cyclopropyl-8-(1H-indazol-5-yl)-9-methyl-4-oxo-4H-quinolizine-3-carboxylate], the MIC ([1]; read-out: MIC Range High, Escherichia coli (6 strains)) was 16 µg/mL, the MIC ([1]; read-out: MIC Range Low, Escherichia coli (6 strains)) was ≤ 0.015 µg/mL and the MIC50 ([1]; read-out: MIC Range Median, Escherichia coli (6 strains)) was 4 µg/mL. For the same compound, the MIC ([2]; read-out: MIC Range High, Klebsiella pneumonia (4 strains)) was 16 µg/mL, the MIC ([2]; read-out: MIC Range Low, Klebsiella pneumonia (4 strains)) was 0.06 µg/mL and the MIC50 ([2]; read-out: MIC Range Median, Klebsiella pneumonia (4 strains)) was 5 µg/mL. For the same compound, the MIC ([3]; read-out: MIC Range High, Pseudomonas aeruginosa (12 strains)) was 16 µg/mL, the MIC ([3]; read-out: MIC Range Low, Pseudomonas aeruginosa (12 strains)) was 0.25 µg/mL and the MIC50 ([3]; read-out: MIC Range Median, Pseudomonas aeruginosa (12 strains)) was 2 µg/mL. The MIC ([4]; read-out: MIC Range High, Burkholderia cepacia (5 strains)) was 0.25 µg/mL, the MIC ([4]; read-out: MIC Range Low, Burkholderia cepacia (5 strains)) was ≤ 0.015 µg/mL and the MIC50 ([4]; read-out: MIC Range Median, Burkholderia cepacia (5 strains)) was 0.06 µg/mL. For the same compound, the MIC50 ([5]; 16 h, Median of the strain panel) was ≤ 0.015 µg/mL, the MIC ([5]; High of the strain panel, read-out: MIC Range High, Haemophilus influenza (5 strains)) was ≤ 0.015 µg/mL and the MIC ([5]; Low of the strain panel, read-out: MIC Range Low, Haemophilus influenza (5 strains)) was ≤ 0.015 µg/mL. The MIC ([6]; read-out: MIC Range High, Acinetobacter baumannii (12 strains)) was 8 µg/mL, the MIC ([6]; read-out: MIC Range Low, Acinetobacter baumannii (12 strains)) was 0.03 µg/mL and the MIC50 ([6]; read-out: MIC Range Median, Acinetobacter baumannii (12 strains)) was 3 µg/mL. For the same compound, the MIC [7] was 1 µg/mL, the IC50 (bacterial gyrase) was ≤ 1.39 µM and the IC50 [8] was 4.34 µM. The IC50 (human topoisomerase I) was > 140 µM, the “Mean Parent Remaining” value ([9]; Liver microsomes + S9, human) was 80% and the “Mean Parent Remaining” value ([9]; Liver microsomes + S9, mouse) was 2%. For the same compound, the “Mean Parent Remaining” value ([9]; Liver microsomes, human) was 67%, the “Mean Parent Remaining” value ([9]; Liver microsomes, mouse) was 2% and the “Log reduction (LgR) from vehicle control (CFU/g)” value ([10]; E. coli ATCC 25922, mouse thigh) was 2.82. The “Log reduction (LgR) from vehicle control (CFU/g)” value ([10]; MRSA ATCC 43300, mouse thigh) was 4.66, the solubility at 24 h (physchem; fassgf or other biorelevant) was 105 µM and the solubility at 24 h (physchem; pH 7.4, aqueous buffer) was 37 µM. It also gave a solubility at 24 h (physchem; simulated gastric fluid) of 8 µM, an MIC ([11]; read-out: MIC Range High, Staphylococcus aureus (16 strains)) of 0.12 µg/mL and an MIC50 ([11]; read-out: MIC Range Median, Staphylococcus aureus (16 strains)) of 0.03 µg/mL. The MIC ([12]; read-out: MIC Range Low, Enterococcus faecalis (5 strains)) was ≤ 0.015 µg/mL, the MIC50 ([12]; read-out: MIC Range Median, Enterococcus faecalis (5 strains)) was ≤ 0.015 µg/mL and the MIC ([13]; read-out: MIC Range Low, Enterococcus faecium (3 strains)) was 0.06 µg/mL. For the same compound, the MIC50 ([13]; read-out: MIC Range Median, Enterococcus faecium (3 strains)) was 0.25 µg/mL, the MIC ([14]; read-out: MIC Range Low, Streptococcus pneumonia (5 strains)) was ≤ 0.015 µg/mL and the MIC50 ([14]; read-out: MIC Range Median, Streptococcus pneumonia (5 strains)) was 0.03 µg/mL. The MIC ([15]; read-out: MIC Range High, Streptococcus pyogenes (4 strains)) was 0.03 µg/mL, the MIC ([15]; read-out: MIC Range Low, Streptococcus pyogenes (4 strains)) was ≤ 0.015 µg/mL and the MIC50 ([15]; read-out: MIC Range Median, Streptococcus pyogenes (4 strains)) was 0.03 µg/mL. For the same compound, the MIC ([16]; read-out: MIC Range High, Group C Streptococcus (4 strains)) was 0.03 µg/mL, the MIC ([16]; read-out: MIC Range Low, Group C Streptococcus (4 strains)) was ≤ 0.015 µg/mL and the MIC50 ([16]; read-out: MIC Range Median, Group C Streptococcus (4 strains)) was ≤ 0.015 µg/mL.
